Legend:
[1] = tested on: convulsion-inducing attacks; experiment: Interaction with convulsion-inducing dose of cardiazol; format: in vivo; conditions: 64 mg/kg oral 30 min before cardiazol 160 mg/kg s.c.
[2] = Determination of acute toxicity in the mouse; format: in vivo; conditions: in vivo, Behrens and Karber
Description: (§1) All the experiments described below were carried out using male rats weighing from 170 to 220 g (Wistar Af stock) and male mice weighing from 18 to 23 g (Swiss NMRI stock).
(§2) All the experiments took place in a laboratory with a constant temperature (22° ± 1° C).
(§3) All the experiments were carried out blind (without the experimenter knowing, at the time of the tests, which animals had received the substance presumed active).
(§4) Unless otherwise stated, 10 animals were always used per point.

mouse [3] = experiment: Determination of acute toxicity in the mouse; format: in vivo
Description: as §1, §2, §3, §4

rat = experiment: Observation of the animals, rat; format: in vivo, rat (male, Wistar Af stock)
Description: as §1, §2, §3, §4

mouse [4] = experiment: Observation of the animals, mouse; format: in vivo, mouse (male, Swiss NMRI stock)
Description: as §1, §2, §3, §4

mice [5] = experiment: Test for antireserpine action, mice; format: in vivo, mouse (male, Swiss NMRI stock); conditions: mice, 8, 16, 32 and 64 mg/kg oral; reserpine 2.5 mg/kg i.p. 4 hours before
Description: as §1

mice [6] = experiment: Test for antioxotremorine action; format: in vivo, mouse (male, Swiss NMRI stock); conditions: mice, 8, 16, 32 or 64 mg/kg i.p. or oral; oxotremorine 0.5 mg/kg i.p.
Description: as §1
In mice which had been dosed intraperitoneally or orally with 8, 16, 32 or 64 mg/kg of MDTP, the effects of oxotremorine (0.5 mg/kg given intraperitoneally) were unchanged, as far as hypothermia, tremors, tears, hypersalivation and defecation were concerned.

mouse [7] = experiment: Interaction with electric shocks; format: in vivo, mouse (male, Swiss NMRI stock); conditions: mouse, 16, 32, 64 or 128 mg/kg oral 60 min before electric shock
Description: as §1

mouse [8] = experiment: Hot-plate test on the mouse; format: in vivo, mouse (male, Swiss NMRI stock)
Description: as §1
This test was applied to measure the time taken or animals to react to a painful stimulus. 12 animals were used per point. 15 Minutes after oral administration of MDTP (64 mg/kg) the time taken for mice exposed to the hot-plate to react (by licking their rear paws) was 5.9 seconds, whereas the time taken by the control group was 9.5 seconds (difference significant at the threshold of 0.01).
On the other hand, the effects on this test of an analgesic dose of morphine was not changed -- either by increasing or reducing them -- by MDTP at the same dose.

monoamine oxidase = experiment: Monoamine oxidase inhibition (tryptamine test); format: in vivo, rat (male, Wistar Af stock); conditions: rat, 64 mg/kg i.p.; tryptamine 3 mg/kg i.v.
Description: as §1
The dose of tryptamine given was insufficient to induce convulsions (3 mg/kg by intravenous injection).

[9] = doses very close to lethal level
[10] = oral or intraperitoneal, from 16 mg/kg, below toxic level
[11] = oral or intraperitoneal, read-out: dose from which slight excitation is observed

SMILES: CC1CC(c2ccccc2)C(c2ccccc2)C(=O)O1 (stereo not drawn) [MDTP, 6-methyl-3,4-diphenyl-3,4,5,6-tetrahydro-2-pyrone]
- latency of convulsion-inducing attacks [1]: did not reduce the latency of the convulsion-inducing attacks
- LD50 ([2]; ip, intraperitoneal): 150 mg/kg
- LD50 ([2]; oral): 625 mg/kg
- ratio LD50/ED 50 (mouse [3]): approximately 20/1
- sexual behaviour (rat): An increase in sexual behaviour
- diameter of the pupils, rectal temperature (rat; doses below toxic level): no change in diameter of the pupils or the rectal temperature
- motor incoordination, abnormal or stereotyped movements (rat; doses below toxic level): not accompanied by motor incoordination or by abnormal or stereotyped movements
- hyperthermia (rat; [9]): moderate hyperthermia
- toxic signs (rat; in vivo): tremors, hyperreactivity to very intense stimuli, interaggressiveness and convulsive phenomena with the rear paws stretched
- excitation on observation (rat; [10]): slight excitation is observed with increased reaction to touching or to sound stimuli
- minimal effective dose (rat; [11]): 16 mg/kg
- diameter of the pupils, rectal temperature (mouse [4]; doses below toxic level): no change in diameter of the pupils or the rectal temperature
- motor incoordination, abnormal or stereotyped movements (mouse [4]; doses below toxic level): not accompanied by motor incoordination or by abnormal or stereotyped movements
- hyperthermia (mouse [4]; [9]): moderate hyperthermia
- toxic signs (mouse [4]; in vivo): tremors, hyperreactivity to very intense stimuli, interaggressiveness and convulsive phenomena with the rear paws stretched
- excitation on observation (mouse [4]; [10]): slight excitation is observed with increased reaction to touching or to sound stimuli
- minimal effective dose (mouse [4]; [11]): 16 mg/kg
- change in reserpine-induced hypothermia or palpebral ptosis (mice [5]): did not produce any change in the hypothermia or palpebral ptosis
- effects of oxotremorine (hypothermia, tremors, tears, hypersalivation, defecation) (mice [6]): unchanged
- duration or form of convulsive attacks (mouse [7]): did not affect either the duration or the form of the convulsive attacks
- mortality after the attack (mouse [7]): did not lead to any increase in mortality after the attack
- time taken to react (licking rear paws) on hot-plate (mouse [8]; 64 mg/kg oral, 15 min after, control 9.5 seconds, significant at 0.01): 5.9 s
- change in effects of an analgesic dose of morphine on hot-plate test (mouse [8]; MDTP at the same dose): not changed
- effects of tryptamine (inhibiting effect on monoamine oxidase) (monoamine oxidase): did not increase the effects of tryptamine
